Assay results taken from patent publication EP2353599A1, “8-hydroxyquinolines as inhibitors of cathepsin B” (University of Ljubljana, priority 2010, dated 2011).
Entries after “also recorded” stand apart in the source; their conditions may differ. Each block holds one compound with its values, some of them ahead of it.

Legend:
Cathepsin B [1] = target: T1, Cathepsin B (Homo sapiens, UniProt P07858); settings: cited from earlier work; for less potent in vitro than parent inhibitor: esterified cell permeable derivatives versus E-64 and CA-074; for inhibit cathepsin B: background
Cathepsin B [2] = target: T1, Cathepsin B; experiment: Cathepsin B endopeptidase activity, enzyme kinetics with substrate Z-RR-AMC; format: biochemical; settings: endopeptidase activity, substrate Z-RR-AMC, pH 6.0, 37°C
Experimental: The effect of 8-hydroxyquinolines on cathepsin B enzymatic activity was assessed using enzyme kinetics. First, the effect of 8-hydroxyquinolines on cathepsin B endopeptidase activity was assessed using the cathepsin B specific endopeptidase substrate Z-RR-AMC. 5 µl of the Z-RR-AMC (final concentration 60, 180 and 360 µM) and 5 µl of respective compound at increasing concentrations were added to wells of a black microplate. 90 µl of human recombinant cathepsin B was then added to a final concentration of 0.4 nM in activation buffer (100 mM phosphate buffer, pH 6.0 with 0.1 % PEG, 5 mM DTT and 1.5 mM EDTA). All assay mixtures contained a constant amount of DMSO, i.e. 5 %. Formation of fluorescent degradation product was continuously monitored at 380 nm ± 20 nm excitation and […] ± 10 nm emission wavelengths on Tecan Safire^2™ at 37°C. Mechanism and the constant of inhibition (Ki) of cathepsin B endopeptidase activity were determined using the graphical method according to Cornish-Bowden (Cornish-Bowden A: A Simple Graphical Method for Determining the Inhibition Constants of Mixed, Uncompetitive and Non-Competitive Inhibitors. Biochem J 1974, 137:143-4.) and using the SigmaPlot® 11, Enzyme Kinetics Module™ 1.3. Table I. Results of testing the compounds according to Formula (I) on cathepsin B endopeptidase activity.

MCF-10A neoT cells [3] = experiment: Extracellular DQ-collagen IV degradation, fluorescence intensity in medium; format: cell-based; settings: 3 h, DQ-collagen IV 5 µg/ml
Experimental: Two experiments were set to differentiate between inhibition of intracellular and extracellular DQ-collagen IV degradation. Inhibition of extracellular DQ-collagen IV degradation was observed by monitoring the fluorescence intensity of degraded DQ-collagen IV in the medium in which MCF-10A neoT cells were grown. 5 × 10^4 MCF-10A neoT cells were plated into wells of a 96-well black plate and were allowed to attach over night. Cells were then incubated with 100 µl PBS containing 5-nitro-8-hydroxyquinoline, CA-074 or CA-074Me (10 µM) and DQ-collagen IV (5 µg/ml) for 3 h. Afterwards, the 80 µl of PBS was transferred into the empty wells and the fluorescence intensity was measured at 495 nm ± 5 nm excitation and 515 nm ± 5 nm emission wavelengths on Tecan Safire^2™. The experiment was performed in 8 parallels and DMSO was used as a control.

MCF-10A neoT cells [4] = experiment: Intracellular DQ-collagen IV degradation by flow cytometry; format: cell-based; settings: 50 µM, shift in fluorescence intensity
Experimental: Inhibition of intracellular DQ-collagen IV degradation was observed by flow cytometry by a shift in fluorescence intensity. 5 × 10^4 MCF-10A neoT cells in complete medium were plated into the wells of a 24-well plate and allowed to attach over night. Afterwards, the medium was replaced with 500 µl of serum free medium with 5-nitro-8-hydroxyquinoline, CA-074 or CA-074Me (50 µM). After 2 h incubation the medium was again replaced with serum free medium containing inhibitors (50 µM) and DQ-collagen IV (5 µg/ml). DMSO was used as a control. For the experiment only viable cells were selected using propidium iodide. The measurements were performed on a FACS Calibur instrument (Beckton Dickinson, Inc.).

Cathepsin B [5] = target: T1, Cathepsin B; experiment: Reversibility with active site probe DCG-04 (labelling, SDS-PAGE, blot); format: binding; settings: 0.1, 1, 10 and 50 µM inhibitor, 1 h, then 2 µM DCG-04
Description: Second, the reversibility of 5-nitro-8-hydroxyquinoline was also studied with the active site probe DCG-04. DCG-04 is a derivative of an irreversible epoxysuccinic inhibitor of cysteine proteases E-64 with an additional biotin moiety which enables detection of covalently modified proteases with labelling intensity correlating with enzymatic activity (Greenbaum D, Medzihradszky KF, Burlingame A, Bogyo M: Epoxide electrophiles as activity-dependent cysteine protease profiling and discovery tools. Chem Biol 2000, 7: 569-81.). 1 µg of recombinant cathepsin B in 50 mM Tris, pH 5.5 containing 1 mM DTT, 5 mM MgCl2 and 250 mM sucrose was incubated with 0.1, 1, 10 in 50 µM 5-nitro-8-hydroxyquinoline (diluted from 10 mM DMSO stocks) for 1 h at room temperature. Samples were then labelled with 2 µM DCG-04 for an additional h at room temperature. After boiling in reducing sample buffer for 10 min samples were analyzed by 12.5 % SDS-PAGE and transferred to a nitrocellulose membrane. The latter was then blocked with 0.5 % Tween 20 in PBS overnight at 4 °C and incubated with 1 µg/ml streptavidin-horseradish peroxidase in 0.2 % Tween 20 in PBS for 1 h at room temperature. The membrane was washed five times with 0.2 % Tween 20 in PBS and the spots on the membrane were visualized with 0.5 mg/ml 3,3'-diaminobenzidine and 0.0005 % (v/v) H2O2 in 50 mM Tris, pH 7.5. […]

Cathepsin B [6] = target: T1, Cathepsin B; experiment: Reversibility by mass spectrometry (ESI-MS of cathepsin B after incubation and dialysis); format: binding; settings: equimolar inhibitor, 1 h room temperature, dialysis
Experimental: Third, reversibility of 5-nitro-8-hydroxyquinoline was also checked with mass spectrometry. Cathepsin B (4.4 µM) was activated in the activation buffer for 5 min at 37 °C. Afterwards, an equimolar amount of the inhibitor was added to the enzyme and incubated for 1 h at room temperature. The mixture was dialyzed against water five times using Microcon Centrifugal Filter Devices YM-10 to avoid salt interferences and to remove unbound molecules of the test compound. Samples were then prepared by adding an equal volume of acetonitrile containing 0.1 % formic acid and analyzed with ESI-MS on an AutoSpec Q instrument. As a positive control CA-074 was used.

SMILES: CCOC(=O)[C@H]1O[C@@H]1C(=O)N[C@@H](CC(C)C)C(=O)NCCC(C)C [Compound E-64d]
- less potent in vitro than parent inhibitor (Cathepsin B [1]): 100-1000 fold

- Ki (Cathepsin B [2]): 89 ± 3.3 µM
SMILES: O=C(O)C1CCN(Cc2cc([N+](=O)[O-])c3cccnc3c2O)CC1 [Compound 7, 7-((4-Carboxypiperidin-1-yl)methyl)-5-nitro-8-hydroxyquinoline]

- Ki (Cathepsin B [2]): 119 ± 4.2 µM
SMILES: O=[N+]([O-])c1cc(CN2CCOCC2)c(O)c2ncccc12 [Compound 2, 7-(Morpholinomethyl)-5-nitro-8-hydroxyquinoline]

- Ki (Cathepsin B [2]): 130 ± 3.4 µM
SMILES: O=[N+]([O-])c1cc(CN2CCC(O)CC2)c(O)c2ncccc12 [Compound 5, 7-((4-Hydroxypiperidin-1-yl)methyl)-5-nitro-8-hydroxyquinoline]

- Ki (Cathepsin B [2]): 75.6 ± 4 µM
SMILES: CN1CCN(Cc2cc([N+](=O)[O-])c3cccnc3c2O)CC1 [Compound 4, 7-((4-Methylpiperazin-1-yl)methyl)-5-nitro-8-hydroxyquinoline]

- Ki (Cathepsin B [2]): 130 ± 3.5 µM
SMILES: CC1CCN(Cc2cc([N+](=O)[O-])c3cccnc3c2O)CC1 [Compound 6, 7-((4-Methypiperidin-1-yl)methyl)-5-nitro-8-hydroxyquinoline]

- Ki (Cathepsin B [2]): 110 ± 3.1 µM
SMILES: O=[N+]([O-])c1cc(CN2CCCC(O)C2)c(O)c2ncccc12 (racemic) [Compound 8, 7-((3-Hydroxypiperidin-1-yl)methyl)-5-nitro-8-hydroxyquinoline]

SMILES: CCCNC(=O)[C@H]1O[C@@H]1C(=O)N[C@H](C(=O)N1CCC[C@H]1C(=O)OC)[C@@H](C)CC [CA-074Me]
- inhibition of extracellular DQ-collagen IV degradation (MCF-10A neoT cells [3]; 10 µM): 33.8%
- inhibition of intracellular DQ-collagen IV degradation (MCF-10A neoT cells [4]): significantly inhibited
- less potent in vitro than parent inhibitor (Cathepsin B [1]): 100-1000 fold

SMILES: CC(C)C[C@H](NC(=O)[C@H]1O[C@@H]1C(=O)O)C(=O)NCCCCN=C(N)N [Compound E-64]
- inhibit cathepsin B (Cathepsin B [1]): nanomolar range

SMILES: CCCNC(=O)[C@H]1O[C@@H]1C(=O)N[C@H](C(=O)N1CCC[C@H]1C(=O)O)[C@@H](C)CC [CA-074]
- intensity of spots (DCG-04 labelling) versus DMSO control (Cathepsin B [5]): concentration dependent loss of spot intensity
- change of mass of the enzyme (Cathepsin B [6]): 384 Da
- inhibition at 10 µM (MCF-10A neoT cells [3]; Homo sapiens, MCF-10A-neoT): 31.1%
- inhibition of intracellular DQ-collagen IV degradation (MCF-10A neoT cells [4]): only slightly inhibited; also recorded: did not
- inhibit cathepsin B (Cathepsin B [1]): nanomolar range

- Ki (Cathepsin B [2]): 118 ± 3.1 µM
SMILES: O=[N+]([O-])c1cc(CN2CCCC2)c(O)c2ncccc12 [Compound 3, 7-(Pyrrolidinomethyl)-5-nitro-8-hydroxyquinoline]
